# Assay results reported in US20250312411A1, “Treatment of Multi-Drug-Resistant Cancers Using Nanoparticulate Drug Delivery Vehicles” (priority 2024, published 2025).
# Assays:
# Assay type in all cases: cell-based
# [1] = test system: tunneling nanotubes (TNTs) in 50:50 DS/MDR MDA-MB-231 cells; assay: Number of TNTs/cm^2 counted in 50:50 DS/MDR co-culture after treatment; details: 50:50 DS/MDR ratio of MDA-MB-231 cells, n=25, FIG. 4C
# [2] = test system: DS TNBC cells; assay: Wound healing assay (cell migration), drug sensitive cells; details: AS-LNP at 10 PM and 30 PM, n=10, FIG. 6A
# Text: (§1) SNARE proteins mediate EV release but also mediate the fusion of TNTs with recipient cells.
# [3] = test system: MDR TNBC cells; assay: Wound healing assay (cell migration), MDR cells; details: AS-LNP at 10 PM and 30 PM, n=10, FIG. 6B
# Text: as §1
SMILES,number of TNTs/cm^2 [1],cell migration in wound healing assay [2],cell migration in wound healing assay [3]
CN(C)C(=N)N=C(N)N [metformin],more effective in reducing the number of TNTs,,
O=C(/C=C/c1ccc(/C=C/C(=O)Nc2ccc(C3=NCCN3)cc2)cc1)Nc1ccc(C2=NCCN2)cc1 [GW4869],,did not decrease cell migration,did not decrease cell migration
"C/C1=C\[C@@H](C)C/C=C/[C@H]2[C@@H]3O[C@]3(C)[C@@H](C)[C@H]3[C@H](Cc4c[nH]c5ccccc45)NC(=O)[C@]32C(=O)/C=C/C(=O)[C@@H]1O [CA, chaetoglobosin A]",significantly reduced the number of TNTs,,
